Results from patent publication US20190365675A1, “COMPOSITIONS FOR THE PREVENTION AND/OR TREATMENT OF ALCOHOL USE DISORDERS” (SERVICIO ANDALUZ DE SALUD, priority 2016, published 2019).

Columns and labels:
Type in all cases: in vivo, Wistar rats
TNF-α = TNF-α mRNA and protein (ELISA) in frontal cortex and plasma after ethanol intoxication; conditions: OEA pre-treatment
Protocol: The animals were treated with intragastric (i.g.) ethanol 3 times a day using an i.g. cannula (16G needle, Fisher Scientific, Waltham, Mass., USA), following a protocol based on a slightly modified standard 4-day alcohol intoxication pattern (Bernier et al., 2002a, b) (FIG. 1A). The ethanol doses were administered every 8 h for a total time of 4 days. The rats treated with ethanol received an initial loading dose of 5 g/kg of ethanol in a 30% solution (w/v) and then a maximum maintenance dose of 3 g/kg, which were determined based on blood ethanol levels (BEL). This repeated standard alcohol intoxication paradigm kept BEL intoxication relatively constant in a range of sedation/ataxia (190 to 430 mg/dl, Table 3), according to the 6-point alcohol intoxication behavior scale (Majchrowicz, 1975). The mean dose of ethanol/rat/day (days 1-4) was 7.06 g/kg, similar to other studies (Obernier et al., 2002a, b). OEA (5 mg/kg, i.p., except initial dose of 10 mg/kg i.p.; synthesized as described in Giuffrida et al., 2000) was dissolved in the vehicle (5% Tween-80 in saline solution) and injected 10 minutes before each of the administrations of ethanol by an intragastric gavage. The anti-inflammatory activity of OEA at 10 mg/kg per intraperitoneal route in the frontal cortex before the injection of LPS (Sayd et al., 2014) was previously referred to. In this study, OEA is repeatedly injected as a pre-treatment before each administration of ethanol. […] The quantitative changes in mRNA levels were estimated by means of RT-PCR, carried out in the presence of the SYBR green primer using a 20-L reaction in a Rotor-Gene (Corbett Research®, Mortlake, NSW, Australia). […] The levels of soluble HMGB1, TNF-α, IL-1β and MCP-1 were determined by means of a commercially available enzyme-linked immunosorbent assay kit (ELISA) (Elabscience Biotechnology Co., Ltd., China, for HMGB-1; RayBiotech®, GA, USA, for TNF-α, IL-1β, and MCP-1). The nuclear/cytosol HMGB1 fraction was determined by means of Western blot analysis.

caspase-8 = experiment: Caspase-8 mRNA in frontal cortex after ethanol intoxication; conditions: OEA pre-treatment
Protocol: (§1) The animals were treated with intragastric (i.g.) ethanol 3 times a day using an i.g. cannula (16G needle, Fisher Scientific, Waltham, Mass., USA), following a protocol based on a slightly modified standard 4-day alcohol intoxication pattern (Bernier et al., 2002a, b) (FIG. 1A). The ethanol doses were administered every 8 h for a total time of 4 days. The rats treated with ethanol received an initial loading dose of 5 g/kg of ethanol in a 30% solution (w/v) and then a maximum maintenance dose of 3 g/kg, which were determined based on blood ethanol levels (BEL). This repeated standard alcohol intoxication paradigm kept BEL intoxication relatively constant in a range of sedation/ataxia (190 to 430 mg/dl, Table 3), according to the 6-point alcohol intoxication behavior scale (Majchrowicz, 1975). The mean dose of ethanol/rat/day (days 1-4) was 7.06 g/kg, similar to other studies (Obernier et al., 2002a, b). OEA (5 mg/kg, i.p., except initial dose of 10 mg/kg i.p.; synthesized as described in Giuffrida et al., 2000) was dissolved in the vehicle (5% Tween-80 in saline solution) and injected 10 minutes before each of the administrations of ethanol by an intragastric gavage. […] The quantitative changes in mRNA levels were estimated by means of RT-PCR, carried out in the presence of the SYBR green primer using a 20-L reaction in a Rotor-Gene (Corbett Research®, Mortlake, NSW, Australia). […]

rats = experiment: Forced swim test during acute ethanol withdrawal; conditions: 48 h after last ethanol; OEA pre-treatment during intoxication
Protocol: In this third experiment (n=25), the treatment with ethanol intoxication and pre-treatment with OEA applied in experiment 2 was repeated, and the animals were subjected to elevated plus maze test 24 h and 12 days after the last forced administration of ethanol and to the forced swim test 48 h after the ethanol intoxication protocol. The rats were subjected to the forced swim test two days after the last ethanol force-feeding (see FIG. 1C for the experimental design), and specific behaviors were recorded with a digital video camera for 5 minutes. These same rats were also subjected to the elevated plus maze test equipped with infrared light photography (Panlab, Barcelona, Spain) 1 and 12 days after the last ethanol force-feeding, where the animals were allowed to freely explore the maze for 5 minutes. The tests were performed 3 h after the start of the dark phase.

iNOS = iNOS mRNA in frontal cortex after ethanol intoxication; conditions: OEA pre-treatment
Protocol: as §1

SMILES: CCCCCCCC/C=C\CCCCCCCC(=O)NCCO [OEA, oleoylethanolamide]
- Ethanol-induced increase in TNF-α protein levels (TNF-α; frontal cortex, ELISA): not prevented
- Ethanol-induced increase in TNF-α mRNA (TNF-α; frontal cortex): did not prevent
- Increase in plasma TNF-α after ethanol intoxication (TNF-α; plasma, ELISA): partially prevented
- Ethanol-induced overexpression of caspase-8 mRNA (caspase-8): reversed
- Forced swim test: immobility (rats): normalizing
- Forced swim test: latency (rats): normalizing
- Forced swim test: swimming (rats): normalizing
- Ethanol-induced increase in expression of iNOS mRNA (iNOS): entirely prevented
